Data published in the NIST ThermoML archive (doi:10.1016/j.jct.2011.04.022).
“And” between values parts separate entries of the source, which are not always exact repeats. Equal entries are not always repeated.

Key:
[1] = Crystal, Calculated from knudsen effusion weight loss
[2] = molar enthalpy of vaporization or sublimation; settings: 298.15 K; Crystal; Second Law analysis of vapor pressure data

Nc1ccccc1-n1cccc1 [1-(2-aminophenyl)pyrrole]
[1]
Settings | vapor or sublimation pressure
296.12 K | 6.43e-05 kPa and 6.33e-05 kPa and 6.58e-05 kPa
298.22 K | 8.56e-05 kPa and 8.51e-05 kPa and 8.36e-05 kPa
300.2 K | 0.000112 kPa and 0.000108 kPa and 0.000107 kPa
302.11 K | 0.000137 kPa and 0.000144 kPa
304.19 K | 0.000179 kPa and 0.000182 kPa and 0.000178 kPa
306.19 K | 0.00024 kPa and 0.000228 kPa and 0.000227 kPa
308.08 K | 0.000301 kPa and 0.0003 kPa and 0.000297 kPa
310.2 K | 0.000388 kPa and 0.000386 kPa and 0.000377 kPa
312.2 K | 0.000503 kPa and 0.000481 kPa and 0.00048 kPa
314.11 K | 0.000643 kPa and 0.000635 kPa and 0.000623 kPa
316.18 K | 0.000816 kPa and 0.000808 kPa and 0.000788 kPa
318.18 K | 0.001059 kPa and 0.001011 kPa and 0.000991 kPa

Settings | molar enthalpy [kcal/mol]
[2] | 23.61
